Assays:
[1] = tested on: LoVo/DX (colon cancer drug resistant); test: Antiproliferative assay in vitro, SRB test, LoVo/DX; format: cell-based, human; conditions: 72 hours exposure, doxorubicin-resistant line, mean ± SD of 3–5 independent experiments, n.a. = no activity in concentration of 5, 25, 125, 625 μM
Experimental: (§1) Established in vitro, human cancer cell lines: MV4-11 (human biphenotypic B myelomonocytic leukaemia), A-549 (non-small cell lung cancer), MCF-7 (breast cancer), LoVo (colon cancer), LoVo/DX (colon cancer drug resistant), HepG2 (liver cancer) and BALB/3T3 (normal mice fibroblasts) were used.
(§2) The leukaemia cell line was cultured in RPMI 1640 medium (IIET, Wroclaw, Poland) with supplemented with 2 mM L-glutamine adjusted to contain 1.0 mM sodium pyruvate, 10% fetal bovine serum (all from Sigma-Aldrich Chemie GmbH, Steinheim, Germany). A549, LoVo and LoVo/DX cells were cultured in the mixture of RPMI 1640+Opti-MEM (1:1) (both from Gibco, Scotland, UK), MCF-7 cells in Eagle medium (IIET, Wroclaw, Poland), HepG2 in DMEM medium (Gibco, Scotland, UK), BALB/3T3 in DMEM medium (IIET, Wroclaw, Poland) supplemented with 2 mM L-glutamine and 1.0 mM sodium pyruvate, 10% fetal bovine serum (all from Sigma-Aldrich, Germany). The MCF-7 cell culture was supplemented with 0.8 mg/L of insulin (Sigma-Aldrich Chemie GmbH, Steinheim, Germany) and the LoVo/DX cell culture was supplemented with 0.1 μg/mL of doxorubicin (Accord). All culture media were supplemented with 100 units/mL penicillin, and 100 μg/mL streptomycin (both from Polfa Tarchomin S.A., Warsaw, Poland). All cell lines were grown at 37°C with 5% CO2 humidified atmosphere.
(§3) Prior to usage, the compounds were dissolved in DMSO or in mixture of 99.8% ethanol and DMSO (1:1) to the concentration of 25 or 50 mM, and subsequently diluted in culture medium to reach the required concentrations (ranging from 5 to 625 μM).
(§4) 24 hours before addition of the tested compounds, the cells were plated in 96-well plates at density of 1×10^4 cells per well. An assay was performed after 72 hours exposure to varying concentrations of the tested agents.
(§5) Cytotoxic test MTT was applied for the cytotoxicity screening against leukaemia cells growing in suspension culture and were carried out according to the method described before. Cytotoxic test SRB was applied against A549, MCF-7, LoVo, LoVo/DX, BALB/3T3 and HepG2 cells and were carried out according to the method described before.
(§6) The results were calculated as an IC50 (inhibitory concentration 50)–the concentration of tested agent, which inhibits proliferation of 50% of the cell population. Each compound in each concentration was tested in triplicate in a single experiment, which was repeated 3–5 times.

[2] = tested on: drug resistant LOVO/DX line versus drug sensitive LoVo line; test: Resistance index (RI), LoVo/DX versus LoVo; format: cell-based, human; conditions: RI = IC50 LoVo/DX / IC50 LoVo; 0<RI<2 able to overcome drug resistance; 2<RI<10 moderate ability; RI>10 no influence
Experimental: Using the obtained IC50 values, the resistance indexes (RI) were calculated by dividing the IC50 values of the compounds tested against the cells of drug resistant cell LOVO/DX line by respective values obtained against the cells of drug sensitive LoVo line. According to Harker et al. three categories of the cells could be distinguished: (a) the cells are drug-sensitive—if the ratio approaches 0–2; (b) the cells are moderately drug-resistant—if the ratio ranges from 2 to 10; (c) the cells are markedly drug-resistant—if the ratio is higher than 10.
We calculated also the resistance indexes (RI) by dividing the IC50 values of the compounds tested against the cells of drug resistant cell LoVo/DX by respective values obtained against the drug sensitive LoVo cell line (Table 2). […] Compounds 7a, 7b and 10b have the highest ability to overcome the barrier of resistance (RI = 1.08, 1.06 and 1.09).

LoVo (colon cancer) = test: Antiproliferative assay in vitro, SRB test, LoVo; format: cell-based, human; conditions: 72 hours exposure, mean ± SD of 3–5 independent experiments, n.a. = no activity in concentration of 5, 25, 125, 625 μM
Experimental: as §1, §2, §3, §4, §5, §6

[3] = tested on: MV4-11 (human biphenotypic B myelomonocytic leukaemia); test: Antiproliferative assay in vitro, MTT test, MV4-11; format: cell-based; conditions: mean ± SD of 3–5 independent experiments, n.a. = no activity in concentration of 5, 25, 125, 625 μM
Experimental: as §1, §2, §3, §4, §5, §6

[4] = tested on: A-549 (non-small cell lung cancer); test: Antiproliferative assay in vitro, SRB test, A-549; format: cell-based, human; conditions: mean ± SD of 3–5 independent experiments, n.a. = no activity in concentration of 5, 25, 125, 625 μM
Experimental: as §1, §2, §3, §4, §5, §6

MCF-7 (breast cancer) = test: Antiproliferative assay in vitro, SRB test, MCF-7; format: cell-based, human; conditions: mean ± SD of 3–5 independent experiments, n.a. = no activity in concentration of 5, 25, 125, 625 μM
Experimental: as §1, §2, §3, §4, §5, §6

HepG2 (liver cancer) = test: Antiproliferative assay in vitro, SRB test, HepG2; format: cell-based, human; conditions: mean ± SD of 3–5 independent experiments, n.a. = no activity in concentration of 5, 25, 125, 625 μM
Experimental: as §1, §2, §3, §4, §5, §6

tested cancer cell lines = test: Antiproliferative activity compared with free terpene acids, cancer cell line panel; format: cell-based, human; conditions: for IC50 values, fold lower than those of free terpene acids 1a, 1b: towards leukaemia, LoVo, LOVO/DX and breast cell lines; for antiproliferative activity, fold higher than free acids: compared with free terpene acids
Experimental: as §4, §5, §6
The aim of this study was to determine whether a joining the terpenes with PC has impact on their biological activity. Increasing the lipophilicity of active compounds was expected to raise their cytotoxicity. We observed that almost all synthesized compounds were cytotoxic against tested cancer cell lines. […] Upon careful evaluation of data it can be concluded that cytotoxic activity of terpene-modified PCs is depended on the position of terpene moiety in the backbone of PC. […] These compounds stronger than corresponding acids inhibit the proliferation of cancer cells. […] Their IC50 values were more than 9-fold lower than those determined for free terpene acids 1a, 1b towards leukaemia, LoVo, LOVO/DX and breast cell lines. […] Generally, activity of terpene-modified PC increased in the following sequence: 1-isoprenoyl-LPC < diisoprenoyl-PC < monoisoprenoyl-PC.

[5] = tested on: BALB/3T3 (normal mice fibroblasts); test: Antiproliferative assay in vitro, SRB test, BALB/3T3; format: cell-based; conditions: mean ± SD of 3–5 independent experiments, n.a. = no activity in concentration of 5, 25, 125, 625 μM
Experimental: as §1, §2, §3, §4, §5, §6

[6] = Homo sapiens, MV4-11, 72 hours exposure
[7] = Homo sapiens, A549, 72 hours exposure
[8] = Homo sapiens, MCF7, 72 hours exposure
[9] = Homo sapiens, HepG2, 72 hours exposure
[10] = Mus musculus, BALB/3T3, 72 hours exposure

| IC50 ([1]; Homo sapiens, LoVo/DX) [µM] | IC50 (LoVo (colon cancer); Homo sapiens, LoVo) [µM] | IC50 [3, 6] [µM] | IC50 [4, 7] [µM] | IC50 (MCF-7 (breast cancer); [8]) [µM] | IC50 (HepG2 (liver cancer); [9]) [µM] | IC50 values, fold lower than those of free terpene acids 1a, 1b (tested cancer cell lines) | Compound | Resistance index (RI) [2] | IC50 [5, 10] [µM] | IC50 [1] [µM] | IC50 ([4]; 72 hours exposure) [µM] | IC50 (MCF-7 (breast cancer); 72 hours exposure) [µM] | IC50 (LoVo (colon cancer)) [µM] | IC50 ([3]; 72 hours exposure) [µM] | IC50 (HepG2 (liver cancer); 72 hours exposure) [µM] | IC50 ([5]; 72 hours exposure) [µM] | antiproliferative activity, fold higher than free acids (tested cancer cell lines) | IC50 ±SD, A-549 ([4]; 72 hours exposure) | IC50 ±SD, HepG2 (HepG2 (liver cancer); 72 hours exposure) |
| --- | --- | --- | --- | --- | --- | --- | --- | --- | --- | --- | --- | --- | --- | --- | --- | --- | --- | --- | --- |
| 552 ± 18.5 | 287 ± 35.1 | 382 ± 24.5 | – | – | – | – | CC(C)=CCCC(C)CC(=O)OC[C@@H](O)COP(=O)([O-])OCC[N+](C)(C)C (stereo partly drawn) [Compound 9b] | 1.93 | – | – | – | – | – | – | – | – | – | – | – |
| 55 ± 2.12 | 51.1 ± 5.1 | 60.9 ± 10.9 | 72.1 ± 14.4 | 105 ± 6.51 | 200 ± 6.1 | more than 9 fold | CCCCCCCCCCCCCCCC(=O)OC[C@H](COP(=O)([O-])OCC[N+](C)(C)C)OC(=O)C=C(C)CCC=C(C)C (mixture of isomers) [Compound 7a, 1'-palmitoyl-2'-(E)-geranoyl-sn-glycero-3'-phosphocholine + 1'-palmitoyl-2'-(Z)-geranoyl-sn-glycero-3'-phosphocholine] | 1.08 | 186 ± 15.2 | – | – | – | – | – | – | – | – | – | – |
| 57.1 ± 2.5 | 53.9 ± 2.97 | 45.7 ± 7.63 | 61.2 ± 6 | 155 ± 88.3 | 103 ± 11.1 | more than 9 fold | CCCCCCCCCCCCCCCC(=O)OC[C@H](COP(=O)([O-])OCC[N+](C)(C)C)OC(=O)CC(C)CCC=C(C)C (stereo partly drawn) [Compound 7b] | 1.06 | 112 ± 29.3 | – | – | – | – | – | – | – | – | – | – |
| – | – | – | – | – | – | – | N.N.[Cl][Pt][Cl] [Cisplatin, reference compound] | – | – | 3.17 ± 0.2 | 8.6 ± 0.7 | 8.1 ± 0.03 | 2.56 ± 0.35 | 1.3 ± 0.47 | 2.38 ± 0.64 | 4.2 ± 1.1 | – | – | – |
| 279 ± 10.8 | 248 ± 9.3 | 96.7 ± 33.9 | 274 ± 9.42 | 236 ± 21.3 | 285 ± 5 | – | CC(C)=CCCC(C)=CC(=O)OC[C@H](COP(=O)([O-])OCC[N+](C)(C)C)OC(=O)C=C(C)CCC=C(C)C (mixture of isomers) [Compound 3a] | 1.12 | 273 ± 6.76 | – | – | – | – | – | – | – | 2-3 fold | – | – |
| 533 ± 36.7 | 249 ± 26.4 | 254 ± 68 | – | 453 ± 96 | – | – | CC(C)=CCCC(C)CC(=O)O (stereo not drawn) [Compound 1b, citronellic acid, reference compound] | – | – | – | – | – | – | – | – | – | – | did not showed any reduction of cells growth | did not showed any reduction of cells growth |
| 492 ± 44.5 | 263 ± 32 | 311 ± 96.4 | – | 447 ± 72 | – | – | CC(C)=CCCC(C)=CC(=O)O [Compound 1a, Geranic acid, reference compound] | 1.87 | – | – | – | – | – | – | – | – | – | did not showed any reduction of cells growth | did not showed any reduction of cells growth |
| 51.9 ± 6.7 | 34.6 ± 1.6 | 38.2 ± 9.3 | 49.5 ± 1.88 | 52.5 ± 5.9 | 70.3 ± 8.6 | more than 9 fold | CCCCCCCCCCCCCCCC(=O)O[C@H](COC(=O)C=C(C)CCC=C(C)C)COP(=O)([O-])OCC[N+](C)(C)C (mixture of isomers) [Compound 10a] | 1.5 | 65.8 ± 3.34 | – | – | – | – | – | – | – | – | – | – |
| 526 ± 89.6 | 246 ± 9.9 | 324 ± 116 | – | 523 ± 97.2 | – | – | CC(C)=CCCC(C)=CC(=O)OC[C@@H](O)COP(=O)([O-])OCC[N+](C)(C)C (mixture of isomers) [Compound 9a] | – | – | – | – | – | – | – | – | – | – | not active | not active |
| 6.53 ± 0.93 | 0.117 ± 0.012 | – | – | – | – | – | COc1cccc2c1C(=O)c1c(O)c3c(c(O)c1C2=O)C[C@@](O)(C(=O)CO)C[C@@H]3O[C@H]1C[C@H](N)[C@H](O)[C@H](C)O1 [Doxorubicin, reference compound] | 55.81 | – | – | – | – | – | – | – | – | – | – | – |
| 57 ± 1.8 | 52.4 ± 3.6 | 57.1 ± 6.37 | 60.2 ± 6.4 | 209 ± 25.7 | 233 ± 14.7 | more than 9 fold | CCCCCCCCCCCCCCCC(=O)O[C@H](COC(=O)CC(C)CCC=C(C)C)COP(=O)([O-])OCC[N+](C)(C)C (stereo partly drawn) [Compound 10b] | 1.09 | 92.9 ± 15.3 | – | – | – | – | – | – | – | – | – | – |
| 251 ± 23.4 | 194 ± 22 | 130 ± 37.8 | 203 ± 47.7 | 243 ± 45.1 | 280.7 ± 1.8 | – | CC(C)=CCCC(C)CC(=O)OC[C@H](COP(=O)([O-])OCC[N+](C)(C)C)OC(=O)CC(C)CCC=C(C)C (stereo partly drawn) [Compound 3b] | 1.3 | 284 ± 6.3 | – | – | – | – | – | – | – | 2-3 fold | – | – |

From article PMC4911001, “Synthesis and Biological Evaluation of Novel Phosphatidylcholine Analogues Containing Monoterpene Acids as Potent Antiproliferative Agents” (PLoS ONE, 2016)
